In US4758555A, “Method for treating convulsions and epilepsy with organic copper compounds” (priority 1986, dated 1988):

What was measured:
Format in all cases: in vivo, male Carworth Farms #1 mice or Sprague-Dawley rats
[1] = Maximal Electroshock Seizure Test; conditions: for Lowest active dose, MES (Phase I): Table V; for ED50: read-out: ED50 for inhibition of seizures, MES (Phase II)
[2] = Subcutaneous Pentylenetetrazol (Metrazol) Seizure Threshold Test; conditions: for Lowest active dose, Metrazol (Phase I): Table V; for Protection against Metrazol-induced seizures (in words): running text; for ED50: read-out: ED50 for inhibition of seizures, Metrazol (Phase II)
[3] = Anticonvulsant activity, both or unspecified seizure models; conditions: for Anticonvulsant activity (in words): running text; for Time of peak activity (Phase II): Table X, IP, challenge time
[4] = Table X, IP, at time of peak activity
[5] = Table X, IP, challenge time 30 min
[6] = Table X, IP, challenge time 4 hrs
[7] = Table X, SC, challenge time 30 min
[8] = Table X, SC, challenge time 4 hrs
[9] = Mus musculus, Table X, IP, at time of peak activity

Molecule	Anticonvulsant activity (in words) [3]	ED50 for inhibition of seizures, MES (Phase II) [1, 4]	Lowest effective dose, MES (Phase I) [1, 5]	Lowest effective dose, MES (Phase I) [1, 6]	Lowest effective dose, MES (Phase I) [1, 7]	Lowest effective dose, MES (Phase I) [1, 8]	Lowest effective dose, Metrazol (Phase I) [2, 5]	Lowest effective dose, Metrazol (Phase I) [2, 6]	Lowest effective dose, Metrazol (Phase I) [2, 7]	Lowest effective dose, Metrazol (Phase I) [2, 8]	Time of peak activity (Phase II) [3]	further results
Cu(II)Pyridoxylidene-L-valinate(H2 O)	no activity											Lowest active dose, MES (Phase I) ([1]; IP, challenge time 30 min): I; Lowest active dose, MES (Phase I) ([1]; IP, challenge time 4 hrs): I; Lowest active dose, Metrazol (Phase I) ([2]; IP, challenge time 30 min): I; Lowest active dose, Metrazol (Phase I) ([2]; IP, challenge time 4 hrs): I
CCC1(c2ccccc2)C(=O)[N-]C(=O)NC1=O.CCC1(c2ccccc2)C(=O)[N-]C(=O)NC1=O.O.O.O.[Cu+2] [Cu(II)(Phenobarbital)2 (H2 O)3]		16 mg/kg	30 milligrams per kilogram of bod	30 milligrams per kilogram of bod	30 milligrams per kilogram of bod	30 milligrams per kilogram of bod	5 milligrams per kilogram of bod	5 milligrams per kilogram of bod	30 milligrams per kilogram of bod	30 milligrams per kilogram of bod	2 h	ED50 for inhibition of seizures, Metrazol (Phase II) [2, 4]: 10 mg/kg
CCC1(c2ccccc2)C(=O)[N-]C(=O)NC1=O.CCC1(c2ccccc2)C(=O)[N-]C(=O)NC1=O.CCC1(c2ccccc2)C(=O)[N-]C(=O)NC1=O.CCC1(c2ccccc2)C(=O)[N-]C(=O)NC1=O.O.O.[Cu+2].[Na+].[Na+] [Na2 [Cu(II)(Phenobarbital)4](H2 O)2]		25 mg/kg	30 milligrams per kilogram of bod	100 milligrams per kilogram of bod	30 milligrams per kilogram of bod	30 milligrams per kilogram of bod	30 milligrams per kilogram of bod	100 milligrams per kilogram of bod	30 milligrams per kilogram of bod	100 milligrams per kilogram of bod	6 h	ED50 for inhibition of seizures, Metrazol (Phase II) [2, 4]: 20 mg/kg
Cu(II)Carbamazepine(H2 O)2	effective anticonvulsant		10 milligrams per kilogram of bod	100 milligrams per kilogram of bod	30 milligrams per kilogram of bod	100 milligrams per kilogram of bod	30 milligrams per kilogram of bod	I	300 milligrams per kilogram of bod	300 milligrams per kilogram of bod		Protection against Metrazol-induced seizures (in words) [2]: did not potentiate Metrazol seizures
O=C1Nc2ccc(Cl)cc2C(c2ccccc2Cl)=NC1O (centres unmarked) [Lorazepam, reference compound]											1 h	ED50 ([1]; Mus musculus, ip): 24 mg/kg; ED50 ([2]; Mus musculus, ip): 0.02 mg/kg
O=C1CN=C(c2ccccc2Cl)c2cc([N+](=O)[O-])ccc2N1.O=C1CN=C(c2ccccc2Cl)c2cc([N+](=O)[O-])ccc2N1.[Cl-].[Cl-].[Cu+2] [Cu(II)(Clonazepam)2 (Cl)2]	very potent anticonvulsant	25 mg/kg	10 milligrams per kilogram of bod	I	1 milligrams per kilogram of bod	30 milligrams per kilogram of bod	1 milligrams per kilogram of bod	1 milligrams per kilogram of bod	1 milligrams per kilogram of bod	1 milligrams per kilogram of bod	0.5 h	ED50 for inhibition of seizures, Metrazol (Phase II) [2, 4]: 0.05 mg/kg; Potency or effectiveness relative to a comparator (in words) ([3]; in vivo): four times as effective as the parent drug
Cu(II)oxazepam	protected against both types of seizure		10 milligrams per kilogram of bod	I			1 milligrams per kilogram of bod	10 milligrams per kilogram of bod				Onset and duration of anticonvulsant action (in words) [3]: more prolonged in its action against Metrazol induced seizures
CCC1(c2ccccc2)C(=O)NC(=O)NC1=O [Phenobarbital, reference compound]											1 h	ED50 ([1]; Mus musculus, ip): 22 mg/kg; ED50 ([2]; Mus musculus, ip): 13 mg/kg
Cu(II)α-methyl-α-phenylsuccinimide(H2 O)0.75	effective in preventing both types of seizure with rapid onsets of action and prolonged durations of action following subcutaneous and intraperitoneal administration		100 milligrams per kilogram of bod	I	30 milligrams per kilogram of bod	100 milligrams per kilogram of bod	100 milligrams per kilogram of bod	100 milligrams per kilogram of bod	30 milligrams per kilogram of bod	600 milligrams per kilogram of bod		
Cc1ncc(CO)c(C=N[C@@H](CO)C(=O)[O-])c1[O-].O.[Cu+2] [Cu(II)Pyridoxylidene-L-serinate(H2 O)]	more effective but only protected against the Metrazol-induced seizure											Lowest active dose, MES (Phase I) ([1]; IP, challenge time 30 min): I; Lowest active dose, MES (Phase I) ([1]; IP, challenge time 4 hrs): I; Lowest active dose, Metrazol (Phase I) ([2]; IP, challenge time 30 min): 100 mg/kg of body weight; Lowest active dose, Metrazol (Phase I) ([2]; IP, challenge time 4 hrs): 100 mg/kg of body weight
CN1C(=O)CN=C(c2ccccc2)c2cc(Cl)ccc21 [Diazepam, reference compound]											1 h	ED50 ([1]; Mus musculus, ip): 19 mg/kg; ED50 ([2]; Mus musculus, ip): 0.17 mg/kg
Cc1ncc(CO)c(C=NC(C(=O)[O-])C(C)O)c1[O-].O.O.[Cu+2] [Cu(II)Pyridoxylidene-L-threoninate(H2 O)2]	more effective but only protected against the Metrazol-induced seizure											Lowest active dose, MES (Phase I) ([1]; IP, challenge time 30 min): I; Lowest active dose, MES (Phase I) ([1]; IP, challenge time 4 hrs): I; Lowest active dose, Metrazol (Phase I) ([2]; IP, challenge time 30 min): 30 mg/kg of body weight; Lowest active dose, Metrazol (Phase I) ([2]; IP, challenge time 4 hrs): 30 mg/kg of body weight
CCC1(CCC(C)C)C(=O)NC(=O)NC1=O [Amobarbital, reference compound]				I				I			0.25 h	minimal effective dose ([1]; Mus musculus, 0.5 h, read-out: Lowest effective dose, MES (Phase I)): 30 mg/kg; ED50 ([1]; Mus musculus, ip): 45 mg/kg; minimal effective dose ([2]; Mus musculus, 0.5 h, read-out: Lowest effective dose, Metrazol (Phase I)): 100 mg/kg; ED50 ([2]; Mus musculus, ip): 53 mg/kg
CC(=O)Oc1c(Br)cc(Br)cc1C(=O)[O-].CC(=O)Oc1c(Br)cc(Br)cc1C(=O)[O-].[Cu+2] [Cu(II)2 (3,5-dibromoacetylsalicylate)4]	effective in protecting against both models of seizure											Anticonvulsant activity, Metrazol (Phase I) ([2]; Table I, SC): I
CCCC(CCC)C(=O)O [Valproic Acid, reference compound]											0.25 h	ED50 [1, 9]: 272 mg/kg; Protection against Maximal Electroshock-induced seizures (in words) ([1]; running text): weakly effective against Maximal Electroshock-induced seizures; ED50 [2, 9]: 149 mg/kg; Protection against Metrazol-induced seizures (in words) [2]: more effective against Metrazol-induced seizures
CCC1(c2ccccc2)C(=O)[N-]C(=O)NC1=O.CCC1(c2ccccc2)C(=O)[N-]C(=O)NC1=O.[Cu+2].c1ccncc1.c1ccncc1 [Cu(II)(Phenobarbital)2 (pyridine)2]		17 mg/kg	100 milligrams per kilogram of bod	100 milligrams per kilogram of bod	I	30 milligrams per kilogram of bod	30 milligrams per kilogram of bod	30 milligrams per kilogram of bod	I	30 milligrams per kilogram of bod	2 h	ED50 for inhibition of seizures, Metrazol (Phase II) [2, 4]: 9 mg/kg
O.O.O.O=C1[N-]C(=O)C(c2ccccc2)(c2ccccc2)N1.O=C1[N-]C(=O)C(c2ccccc2)(c2ccccc2)N1.[Cu+2] [Cu(II)(Dilantin)2 (H2 O)3]	did not potentiate but did block both types of seizures	13 mg/kg	30 milligrams per kilogram of bod	30 milligrams per kilogram of bod			100 milligrams per kilogram of bod	100 milligrams per kilogram of bod			4 h	Onset and duration of anticonvulsant action (in words) [3]: rapid onset and prolonged duration in inhibiting only Maximal Electroshock-induced seizures; Time of peak effect ([3]; Phase II): 4 h
CCC1(CCC(C)C)C(=O)[N-]C(=O)NC1=O.CCC1(CCC(C)C)C(=O)[N-]C(=O)NC1=O.CCC1(CCC(C)C)C(=O)[N-]C(=O)NC1=O.CCC1(CCC(C)C)C(=O)[N-]C(=O)NC1=O.O.O.O.O.O.[Cu+2].[Cu+2] [Cu(II)(Amobarbital)2 (H2 O)2.5]		87 mg/kg	300 milligrams per kilogram of bod	I			30 milligrams per kilogram of bod	I			0.5 h	ED50 for inhibition of seizures, Metrazol (Phase II) [2, 4]: 87 mg/kg
